Results on 11 compounds are retold here after patent publication US7585895B2, “Therapeutic substituted cyclopentanes” (Allergan, Inc., priority 2005, dated 2009).

Broadly, the Ki is a measure of affinity in units of concentration, obtained from inhibition or displacement. For orientation: EC50 means the concentration giving half of the maximal effect.

SMILES strings stand for the structures.

Experiment [1] concerns the target T1, EP4 receptors (Homo sapiens, UniProt P35408).
T1 construct: expressed in transfected cells; membrane pellet
As to the kind of experiment: Radioligand binding, [3H]PGE2, EP4 (Ki). The following applies: HEK-293 cells stably expressing EP4, [3H]PGE2. An outline of the steps: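 Membranes from HEK-293 cells stably expressing human EP4 were incubated 60 min at 25 °C with 5 nM [3H]PGE2 and competitor in TME buffer pH 7.4, then filtered over GF/B. Non-specific binding defined with 10^−5 M unlabeled PGE2; duplicate points, at least three experiments.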

The target in experiment [2] is T2, hIP (Homo sapiens, UniProt P43119).
T2 construct: expressed in transfected cells
As to the kind of experiment: FLIPR calcium signal, IP. The settings on record: HEK-293(EBNA); for EC50: read-out: Ca2+ Signal-EC50 (nM) IP. Type of experiment: cell-based. The gist of the method:
(§1)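 Stably transfected HEK-293(EBNA) cells loaded with 2 μM Fluo-4 AM in HBSS-HEPES pH 7.4, 37° C; peak fluorescence rise after compound addition (FLIPR, 488 nm excitation) expressed relative to buffer and standard agonist controls (PGE2 for EP subtypes, U-46619 for TP). Tested 10^−5 to 10^−11 M, duplicates, n≧3.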

Experiment [3] concerns the target T3, hEP4/Gqs5 (Homo sapiens, UniProt P35408).
T3 construct: expressed in transfected cells
The experiment is described as follows: FLIPR calcium signal, EP4. Type of experiment: cell-based. The following applies: HEK-293(EBNA); for EC50: read-out: Ca2+ Signal-EC50 (nM) EP4. An outline of the steps:
(§2)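 Stable HEK-293(EBNA) lines expressing recombinant human EP1, TP, or EP2/EP4 coupled via Gqs5; Fluo-4 AM loaded (2 μM, 45 min), HBSS-HEPES pH 7.4, 37° C. Peak FLIPR fluorescence expressed relative to buffer and standard agonist (PGE2 for EP receptors, U-46619 for TP); compounds at 10^−5 M or 10^−5–10^−11 M, duplicates, n≧3.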

Experiment [4] has as its target T4, hEP1 (Homo sapiens, UniProt P34995).
T4 construct: expressed in transfected cells
T4 sequence (P34995 1-402): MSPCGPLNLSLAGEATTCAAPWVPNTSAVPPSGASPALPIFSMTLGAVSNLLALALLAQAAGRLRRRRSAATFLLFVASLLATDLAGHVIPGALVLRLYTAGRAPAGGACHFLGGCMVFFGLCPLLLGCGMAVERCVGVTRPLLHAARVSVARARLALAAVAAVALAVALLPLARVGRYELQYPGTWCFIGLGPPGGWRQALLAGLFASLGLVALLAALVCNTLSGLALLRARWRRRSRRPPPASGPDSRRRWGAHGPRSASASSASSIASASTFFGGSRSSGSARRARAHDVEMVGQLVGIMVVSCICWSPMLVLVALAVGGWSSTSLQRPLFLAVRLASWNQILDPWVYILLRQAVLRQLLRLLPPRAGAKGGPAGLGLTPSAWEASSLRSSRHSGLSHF
As to the kind of experiment: FLIPR calcium signal, EP1. The experiment is classed as cell-based. The settings on record: HEK-293(EBNA). An outline of the steps:
as §2

Experiment [5] addresses T5, hEP3A/Gqi5 (Homo sapiens, UniProt P43115).
T5 construct: expressed in transfected cells
T5 sequence (P43115 1-390): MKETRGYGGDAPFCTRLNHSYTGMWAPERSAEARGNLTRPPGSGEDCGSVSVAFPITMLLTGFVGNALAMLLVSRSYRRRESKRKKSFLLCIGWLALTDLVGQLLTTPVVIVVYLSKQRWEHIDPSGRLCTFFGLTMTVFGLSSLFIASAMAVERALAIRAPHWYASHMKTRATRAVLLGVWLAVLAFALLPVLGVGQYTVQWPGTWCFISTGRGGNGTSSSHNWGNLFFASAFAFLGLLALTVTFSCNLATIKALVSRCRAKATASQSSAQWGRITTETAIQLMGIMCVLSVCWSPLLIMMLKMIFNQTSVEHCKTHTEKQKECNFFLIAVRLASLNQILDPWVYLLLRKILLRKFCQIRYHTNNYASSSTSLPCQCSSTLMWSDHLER
As to the kind of experiment: FLIPR calcium signal, EP3. Type of experiment: cell-based. The settings on record: HEK-293(EBNA); for EC50: read-out: Ca2+ Signal-EC50 (nM) EP3. An outline of the steps: as §1

T1 sequence (P35408 whole entry): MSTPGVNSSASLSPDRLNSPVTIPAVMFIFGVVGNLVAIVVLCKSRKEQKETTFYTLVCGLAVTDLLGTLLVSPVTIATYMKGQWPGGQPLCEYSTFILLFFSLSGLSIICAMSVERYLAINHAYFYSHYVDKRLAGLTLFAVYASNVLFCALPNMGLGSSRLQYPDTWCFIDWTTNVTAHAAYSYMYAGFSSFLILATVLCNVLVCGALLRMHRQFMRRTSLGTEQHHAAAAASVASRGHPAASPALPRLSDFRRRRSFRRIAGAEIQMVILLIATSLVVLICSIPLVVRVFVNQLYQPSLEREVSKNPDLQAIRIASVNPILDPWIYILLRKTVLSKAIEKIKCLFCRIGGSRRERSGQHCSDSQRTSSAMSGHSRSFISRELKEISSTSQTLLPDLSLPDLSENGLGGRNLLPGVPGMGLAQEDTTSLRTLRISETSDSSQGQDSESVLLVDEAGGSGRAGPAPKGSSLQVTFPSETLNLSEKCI
T3 sequence (P35408 whole entry): as above
T2 sequence (P43119 whole entry): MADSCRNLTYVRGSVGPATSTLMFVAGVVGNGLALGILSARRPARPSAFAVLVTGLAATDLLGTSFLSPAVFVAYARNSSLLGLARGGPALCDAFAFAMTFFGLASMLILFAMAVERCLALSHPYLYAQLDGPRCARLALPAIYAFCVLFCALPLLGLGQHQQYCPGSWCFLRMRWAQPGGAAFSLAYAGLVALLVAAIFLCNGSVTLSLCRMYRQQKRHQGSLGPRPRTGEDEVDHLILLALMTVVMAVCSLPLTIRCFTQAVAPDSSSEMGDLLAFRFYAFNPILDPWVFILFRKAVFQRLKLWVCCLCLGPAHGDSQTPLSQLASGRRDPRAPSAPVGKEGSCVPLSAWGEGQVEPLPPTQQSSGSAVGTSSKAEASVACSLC

In the case of `O=C(O)CCCCCC[C@@H]1[C@@H](c2ccc(C(O)CC3CCCCC3)cc2)[C@H](O)C[C@H]1Cl` (stereo partly drawn) [Entry 18, 7-{(1R,2S,3R,5R)-5-Chloro-2-[4-(2-cyclohexyl-1-hydroxy-ethyl)-phenyl]-3-hydroxy-cyclopentyl}-heptanoic acid], the affinity in experiment [1] corresponds to a Ki of 4940 nM. In experiment [2], the “Ca2+ Signal-EC50 (nM) IP” value was “not active”. Also, the EC50 in experiment [3] was more than 10000 nM. Also, in experiment [4], the “Ca2+ Signal-EC50 (nM) EP1” value is “not active”. For the same compound, in experiment [5], the “Ca2+ Signal-EC50 (nM) EP3” value was “not active”.

Compound `O=C(O)CCCCCC[C@@H]1[C@@H](c2ccc(C(O)Cc3ccccc3)cc2)[C@H](O)C[C@H]1Cl` (stereo partly drawn) [Entry 22, 7-{(1 R,2S,3R,5R)-5-Chloro-3-hydroxy-2-[4-(1-hydroxy-2-phenyl-ethyl)-phenyl]-cyclopentyl}-heptanoic acid] registered a Ki in experiment [1] of more than 10000 nM. Further, the “Ca2+ Signal-EC50 (nM) IP” value in experiment [2] is listed as “not active”. Besides, the EC50 in experiment [3] is 15800 nM. Also, in experiment [4], the “Ca2+ Signal-EC50 (nM) EP1” value is recorded as “not active”. Further, the “Ca2+ Signal-EC50 (nM) EP3” value in experiment [5] was “not active”.

`O=C(O)CCC/C=C\C[C@@H]1[C@@H](c2ccc(C(O)CCc3ccccc3)cc2)[C@H](O)C[C@H]1Cl` (stereo partly drawn) [Entry 23, (Z)-7-{(1R,2S,3R,5R)-5-Chloro-3-hydroxy-2-[4-(1-hydroxy-3-phenyl-propyl)-phenyl]-cyclopentyl}-hept-5-enoic acid] had a Ki in experiment [1] of more than 10000 nM. Moreover, the “Ca2+ Signal-EC50 (nM) IP” value in experiment [2] was “not active”. Besides, the values for the EC50 in experiment [3] and in experiment [5] were more than 10000 nM and 13700 nM, respectively. In addition, the “Ca2+ Signal-EC50 (nM) EP1” value in experiment [4] is “not active”.

`O=C(O)CCCCCC[C@@H]1[C@@H](c2ccc(C(O)CCc3ccccc3)cc2)[C@H](O)C[C@H]1Cl` (stereo partly drawn) [Entry 24, 7-{(1R,2S,3R,5R)-5-Chloro-3-hydroxy-2-[4-(1-hydroxy-3-phenyl-propyl)-phenyl]-cyclopentyl}-heptanoic acid] showed a Ki in experiment [1] of more than 10000 nM. For the same compound, the “Ca2+ Signal-EC50 (nM) IP” value in experiment [2] is “not active”. Further, the EC50 is more than 10000 nM in experiment [3], 4520 nM in experiment [4] (read-out: Ca2+ Signal-EC50 (nM) EP1) and 8830 nM in experiment [5].

Regarding `CCCCCCC(O)c1ccc([C@@H]2[C@@H](C/C=C\CCCC(=O)O)[C@H](Cl)C[C@H]2O)cc1` (stereo partly drawn) [Entry 25, (Z)-7-{(1R,2S,3R,5R)-5-Chloro-3-hydroxy-2-[4-(1-hydroxy-heptyl)-phenyl]-cyclopentyl}-hept-5-enoic acid], the Ki in experiment [1] came to 2260 nM. For the same compound, in experiment [2], the “Ca2+ Signal-EC50 (nM) IP” value is “not active”. For the same compound, the “Ca2+ Signal-EC50 (nM) EP4” value in experiment [3] was “not active”. Also, the “Ca2+ Signal-EC50 (nM) EP1” value in experiment [4] is recorded as “not active”. Also, in experiment [5], the EC50 came out at 5930 nM.

With `CCCC(O)c1ccc([C@@H]2[C@@H](C/C=C\CCCC(=O)O)[C@H](Cl)C[C@H]2O)cc1` (stereo partly drawn) [Entry 26, (Z)-7-{(1R,2S,3R,5R)-5-Chloro-3-hydroxy-2-[4-(1-hydroxy-butyl)-phenyl]-cyclopentyl}-hept-5-enoic acid], the inhibitory constant (Ki) in experiment [1] was more than 10000 nM. Besides, in experiment [2], the “Ca2+ Signal-EC50 (nM) IP” value was “not active”. Also, in experiment [3], the “Ca2+ Signal-EC50 (nM) EP4” value is “not active”. For the same compound, in experiment [4], the “Ca2+ Signal-EC50 (nM) EP1” value is listed as “not active”. The “Ca2+ Signal-EC50 (nM) EP3” value in experiment [5] is on record as “not active”.

For the compound `O=C(O)CCC/C=C\C[C@@H]1[C@@H](c2ccc(C(O)c3ccccc3)cc2)[C@H](O)C[C@H]1Cl` (stereo partly drawn) [Entry 28, (Z)-7-{(1R,2S,3R,5R)-5-Chloro-3-hydroxy-2-[4-(hydroxy-phenyl-methyl)-phenyl]-cyclopentyl}-hept-5-enoic acid], the “BINDING-Ki (nM) EP4” value in experiment [1] is on record as “not active”. In addition, the EC50 in experiment [2] stood at 1650 nM. Besides, the “Ca2+ Signal-EC50 (nM) EP4” value in experiment [3] is “not active”. Besides, the “Ca2+ Signal-EC50 (nM) EP1” value in experiment [4] is given as “not active”. The “Ca2+ Signal-EC50 (nM) EP3” value in experiment [5] is recorded as “not active”.

Compound `CCCCCC(O)c1cccc([C@@H]2[C@@H](C/C=C\CCCC(=O)O)[C@H](Cl)C[C@H]2O)c1` (stereo partly drawn) [Entry 29, (Z)-7-{(1R,2S,3R,5R)-5-Chloro-3-hydroxy-2-[3-(1-hydroxy-hexyl)-phenyl]-cyclopentyl}-hept-5-enoic acid] returned a Ki in experiment [1] of more than 10000 nM. For the same compound, the EC50 in experiment [2] is 8490 nM; in experiment [5] it was 37 nM. Also, the “Ca2+ Signal-EC50 (nM) EP4” value in experiment [3] is “not active”. In addition, the “Ca2+ Signal-EC50 (nM) EP1” value in experiment [4] is given as “not active”.

As for `CCCCC(O)c1cccc([C@@H]2[C@@H](C/C=C\CCCC(=O)O)[C@H](Cl)C[C@H]2O)c1` (stereo partly drawn) [Entry 30, (Z)-7-{(1R,2S,3R,5R)-5-Chloro-3-hydroxy-2-[3-(1-hydroxy-pentyl)-phenyl]-cyclopentyl}-hept-5-enoic acid], the Ki in experiment [1] is more than 10000 nM. For the same compound, the EC50 in experiment [2] is 2060 nM; in experiment [5], 23 nM. Also, the “Ca2+ Signal-EC50 (nM) EP4” value in experiment [3] is “not active”. Also, the “Ca2+ Signal-EC50 (nM) EP1” value in experiment [4] is given as “not active”.

In experiment [1], `CCCCCC(O)C(C)(C)c1ccc([C@@H]2[C@@H](C/C=C\CCCC(=O)O)[C@H](Cl)C[C@H]2O)cc1` (stereo partly drawn) [Entry 31, (Z)-7-{(1R,2S,3R,5R)-5-Chloro-3-hydroxy-2-[4-(2-hydroxy-1,1-dimethyl-heptyl)-phenyl]-cyclopentyl}-hept-5-enoic acid] registered a Ki of 5410 nM. For the same compound, the “Ca2+ Signal-EC50 (nM) IP” value in experiment [2] is recorded as “not active”. Moreover, in experiment [3], the “Ca2+ Signal-EC50 (nM) EP4” value is recorded as “not active”. The “Ca2+ Signal-EC50 (nM) EP1” value in experiment [4] is given as “not active”. Further, the EC50 in experiment [5] stood at 1300 nM.

In experiment [1], `CCCCCCc1ccc([C@@H]2[C@@H](C/C=C\CCCC(=O)O)[C@H](Cl)C[C@H]2O)cc1` [Entry 33, (Z)-7-[(1R,2S,3R,5R)-5-Chloro-2-(4-hexyl-phenyl)-3-hydroxy-cyclopentyl]-hept-5-enoic acid] showed a Ki of more than 10000 nM. For the same compound, in experiment [2], the “Ca2+ Signal-EC50 (nM) IP” value is on record as “not active”. Moreover, the EC50 in experiment [3] was more than 10000 nM. In addition, the “Ca2+ Signal-EC50 (nM) EP1” value in experiment [4] was “not active”. In experiment [5], the “Ca2+ Signal-EC50 (nM) EP3” value was “not active”.
